# Laboratory results from ChEMBL document CHEMBL1133396, “Construction of HIV Rev peptides containing peptide nucleic acid that bind HIV RRE IIB RNA” (Bioorg Med Chem Lett, 2000).
# pKd: −log10 of the molar value. Peptide text beside a SMILES is read from it.
# Target: Nucleic Acid
# Test: Dissociation constant against stem loop IIB region of RRE-response element RNA was reported
# Format: nucleic-acid assay, Human immunodeficiency virus 1
row,SMILES,pKd
1,C[C@H](NC(=O)[C@H](CCC(N)=O)NC(=O)[C@H](CCCNC(=N)N)NC(=O)[C@@H](NC(=O)CCC(=O)O)[C@@H](C)O)C(=O)N[C@@H](CCCNC(=N)N)C(=O)N[C@@H](CCCNC(=N)N)C(=O)N[C@@H](CC(N)=O)C(=O)N[C@@H](CCCNC(=N)N)C(=O)N[C@@H](CCCNC(=N)N)C(=O)N[C@@H](CCCNC(=N)N)C(=O)NCCN(CC(=O)N[C@@H](Cc1c[nH]c2ccccc12)C(=O)N[C@@H](CCCNC(=N)N)C(=O)N[C@@H](CCC(=O)O)C(=O)N[C@@H](CCCNC(=N)N)C(=O)N[C@@H](CCC(N)=O)C(=O)N[C@@H](CCCNC(=N)N)C(N)=O)C(=O)Cn1ccc(N)nc1=O,6.62
2,C[C@H](NC(=O)[C@H](CCC(N)=O)NC(=O)[C@H](CCCNC(=N)N)NC(=O)[C@@H](NC(=O)CCC(=O)O)[C@@H](C)O)C(=O)N[C@@H](CCCNC(=N)N)C(=O)N[C@@H](CCCNC(=N)N)C(=O)N[C@@H](CC(N)=O)C(=O)N[C@@H](CCCNC(=N)N)C(=O)N[C@@H](CCCNC(=N)N)C(=O)N[C@@H](CCCNC(=N)N)C(=O)N[C@@H](CCCNC(=N)N)C(=O)N[C@@H](Cc1c[nH]c2ccccc12)C(=O)N[C@@H](CCCNC(=N)N)C(=O)N[C@@H](CCC(=O)O)C(=O)N[C@@H](CCCNC(=N)N)C(=O)N[C@@H](CCC(N)=O)C(=O)NCC(=O)NCC(N)=O (HELM PEPTIDE1{[O=C(O)CCC(=O)[*:2]].T.R.Q.A.R.R.N.R.R.R.R.W.R.E.R.Q.G.G.[am]}$$$$V2.0),7.38
3,C[C@H](NC(=O)[C@H](CCC(N)=O)NC(=O)[C@H](CCCNC(=N)N)NC(=O)[C@@H](NC(=O)CCC(=O)O)[C@@H](C)O)C(=O)N[C@@H](CCCNC(=N)N)C(=O)N[C@@H](CCCNC(=N)N)C(=O)N[C@@H](CC(N)=O)C(=O)N[C@@H](CCCNC(=N)N)C(=O)N[C@@H](CCCNC(=N)N)C(=O)N[C@@H](CCCNC(=N)N)C(=O)N[C@@H](CCCNC(=N)N)C(=O)N[C@@H](Cc1c[nH]c2ccccc12)C(=O)N[C@@H](CCCNC(=N)N)C(=O)N[C@@H](CCC(=O)O)C(=O)N[C@@H](CCCNC(=N)N)C(=O)N[C@@H](CCC(N)=O)C(=O)NCCN(CC(N)=O)C(=O)Cn1cnc2c(N)ncnc21 (HELM PEPTIDE1{[O=C(O)CCC(=O)[*:2]].T.R.Q.A.R.R.N.R.R.R.R.W.R.E.R.Q.[NC(=O)CN(CCN[*:1])C(=O)Cn1cnc2c(N)ncnc21]}$$$$V2.0),8.00

# Now from value to compound:
row,pKd,SMILES
1,6.38,C[C@H](NC(=O)[C@H](CCC(N)=O)NC(=O)[C@H](CCCNC(=N)N)NC(=O)[C@@H](NC(=O)CCC(=O)O)[C@@H](C)O)C(=O)N[C@@H](CCCNC(=N)N)C(=O)NCCN(CC(=O)N[C@@H](CC(N)=O)C(=O)N[C@@H](CCCNC(=N)N)C(=O)N[C@@H](CCCNC(=N)N)C(=O)N[C@@H](CCCNC(=N)N)C(=O)N[C@@H](CCCNC(=N)N)C(=O)N[C@@H](Cc1c[nH]c2ccccc12)C(=O)N[C@@H](CCCNC(=N)N)C(=O)N[C@@H](CCC(=O)O)C(=O)N[C@@H](CCCNC(=N)N)C(=O)N[C@@H](CCC(N)=O)C(=O)N[C@@H](CCCNC(=N)N)C(N)=O)C(=O)Cn1ccc(N)nc1=O
2,8.10,C[C@H](NC(=O)[C@H](CCC(N)=O)NC(=O)[C@H](CCCNC(=N)N)NC(=O)[C@@H](NC(=O)CCC(=O)O)[C@@H](C)O)C(=O)N[C@@H](CCCNC(=N)N)C(=O)N[C@@H](CCCNC(=N)N)C(=O)N[C@@H](CC(N)=O)C(=O)N[C@@H](CCCNC(=N)N)C(=O)N[C@@H](CCCNC(=N)N)C(=O)N[C@@H](CCCNC(=N)N)C(=O)N[C@@H](CCCNC(=N)N)C(=O)N[C@@H](Cc1c[nH]c2ccccc12)C(=O)N[C@@H](CCCNC(=N)N)C(=O)N[C@@H](CCC(=O)O)C(=O)N[C@@H](CCCNC(=N)N)C(=O)N[C@@H](CCC(N)=O)C(=O)N[C@@H](CCCNC(=N)N)C(=O)NCC(N)=O (HELM PEPTIDE1{[O=C(O)CCC(=O)[*:2]].T.R.Q.A.R.R.N.R.R.R.R.W.R.E.R.Q.R.G.[am]}$$$$V2.0)
3,7.68,C[C@H](NC(=O)[C@H](CCC(N)=O)NC(=O)[C@H](CCCNC(=N)N)NC(=O)[C@@H](NC(=O)CCC(=O)O)[C@@H](C)O)C(=O)N[C@@H](CCCNC(=N)N)C(=O)N[C@@H](CCCNC(=N)N)C(=O)N[C@@H](CC(N)=O)C(=O)N[C@@H](CCCNC(=N)N)C(=O)N[C@@H](CCCNC(=N)N)C(=O)N[C@@H](CCCNC(=N)N)C(=O)N[C@@H](CCCNC(=N)N)C(=O)N[C@@H](Cc1c[nH]c2ccccc12)C(=O)N[C@@H](CCCNC(=N)N)C(=O)N[C@@H](CCC(=O)O)C(=O)N[C@@H](CCCNC(=N)N)C(=O)N[C@@H](CCC(N)=O)C(=O)NCCN(CC(N)=O)C(=O)Cn1ccc(N)nc1=O (HELM PEPTIDE1{[O=C(O)CCC(=O)[*:2]].T.R.Q.A.R.R.N.R.R.R.R.W.R.E.R.Q.[NC(=O)CN(CCN[*:1])C(=O)Cn1ccc(N)nc1=O]}$$$$V2.0)
